Measurements reported in article PMC8232704, “Hydrophobic Tagging-Mediated Degradation of Transcription Coactivator SRC-1” (International Journal of Molecular Sciences, 2021).
Bridge positions count the residues as written; N and C are the ends. Square brackets hold non-standard residues; d marks the D form. Peptide text beside a SMILES is read from it. N(1-adamantyl)Gly = O=C(O)CNC12CC3CC(CC(C3)C1)C2; Cha = N[C@@H](CC1CCCCC1)C(=O)O; S5 = C=CCCC[C@](C)(N)C(=O)O; PEG2 = NCCOCCOCCC(=O)O; PEG1 = NCCOCCC(=O)O; Ahx = NCCCCCC(=O)O; Ava = NCCCCC(=O)O; GABA = NCCCC(=O)O

Legend:
[1] = target: T1, PAS-B domain of human SRC-1 (residues 257–385) (Homo sapiens, UniProt Q15788); test: Competitive fluorescence polarization (FP) assay, fluorescein-labeled STAT-6 peptide binding to SRC-1; details: 100 nM fluorescein-labeled 15-mer STAT-6 peptide, 1 μM PAS-B domain of SRC-1, HEPES pH 7.4, SD from three independent experiments
T1 construct: PAS-B domain of human SRC-1 (residues 257–385); His6; made in house; host or cells: Rosetta E. coli
T1 sequence (Q15788 257-385): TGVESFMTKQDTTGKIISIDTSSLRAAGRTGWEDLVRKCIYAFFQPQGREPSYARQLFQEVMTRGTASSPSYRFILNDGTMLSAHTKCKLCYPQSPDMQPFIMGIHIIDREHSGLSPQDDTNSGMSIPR
Protocol: A plasmid expressing the PAS-B domain of human SRC-1 (residues 257–385) tagged with His6 was provided by John A. Robinson (University of Zürich at Switzerland). It was transformed into Rosetta E. coli cells. SRC-1 protein purification was performed as described previously.
After incubating 100 nM of fluorescein-labeled 15-mer STAT-6 peptide with 1 μM of PAS-B domain of SRC-1 in a binding buffer (50 mM HEPES pH 7.4, 150 mM NaCl, 3.4 mM EDTA, and 0.01% Tween 20) in a black Greiner 384-well plate for 30 min, indicated concentrations of YL2 and YL2-HyT1 through YL2-HyT6 were added to each well. After incubation for another 1.5 h, fluorescence polarization was measured on a Tecan Infinite F200 Pro microplate reader (excitation wavelength: 485 nm, emission wavelength: 535 nm). The Ki values of the compounds in the competition assay were determined using the following equation [43]. (1) Ki=[I]50/[L]50/KD+[P]0/KD+1 where [I]50 is the concentration of the free inhibitor at 50% inhibition, KD is the dissociation constant of the protein–ligand complex, [L]50 is the concentration of the free labeled ligand at 50% inhibition, and [P]0 is the concentration of the free protein at 0% inhibition.

[2] = Circular dichroism (CD), calculated helicity; assay type: physicochemical; details: 50 μM peptide in 30% PBS (pH 7.4) and 70% acetonitrile, calculated from CD spectra
Protocol: Lyophilized compounds (YL2 and YL2-HyT1 through YL2-HyT6) were dissolved in 30% PBS (pH 7.4) and 70% acetonitrile solution to a final concentration of 50 μM. CD spectra were measured with a Jasco J-815 CD spectropolarimeter using a quartz cuvette (2 mm path length). These spectra were averages of five successive accumulations with a scan rate of 100 nm/min. Raw data were converted in terms of per-residue molar ellipticity (deg·cm^2·dmol^−1·residue^−1) as calculated per mole of amide groups present and normalized by the molar concentration of peptides. Smoothing and correction of background spectra were performed with Origin Pro 8.0 (OriginLab Corporation, Northampton, MA, USA). Then α-helical propensities of YL2 and YL2-HyT1 through YL2-HyT6 were calculated as previously reported.

[3] = target: T2, SRC-1 in MDA-MB-231 cells (Homo sapiens, UniProt Q15788); test: Immunoblot analysis of cellular SRC-1 levels (SRC-1 degradation); assay type: cell-based; details: MDA-MB-231 cells, 18 h; for SRC-1 (%): normalized to GAPDH and DMSO controls
T2 construct: endogenous in cells; host or cells: MDA-MB-231
T2 sequence (Q15788 whole entry): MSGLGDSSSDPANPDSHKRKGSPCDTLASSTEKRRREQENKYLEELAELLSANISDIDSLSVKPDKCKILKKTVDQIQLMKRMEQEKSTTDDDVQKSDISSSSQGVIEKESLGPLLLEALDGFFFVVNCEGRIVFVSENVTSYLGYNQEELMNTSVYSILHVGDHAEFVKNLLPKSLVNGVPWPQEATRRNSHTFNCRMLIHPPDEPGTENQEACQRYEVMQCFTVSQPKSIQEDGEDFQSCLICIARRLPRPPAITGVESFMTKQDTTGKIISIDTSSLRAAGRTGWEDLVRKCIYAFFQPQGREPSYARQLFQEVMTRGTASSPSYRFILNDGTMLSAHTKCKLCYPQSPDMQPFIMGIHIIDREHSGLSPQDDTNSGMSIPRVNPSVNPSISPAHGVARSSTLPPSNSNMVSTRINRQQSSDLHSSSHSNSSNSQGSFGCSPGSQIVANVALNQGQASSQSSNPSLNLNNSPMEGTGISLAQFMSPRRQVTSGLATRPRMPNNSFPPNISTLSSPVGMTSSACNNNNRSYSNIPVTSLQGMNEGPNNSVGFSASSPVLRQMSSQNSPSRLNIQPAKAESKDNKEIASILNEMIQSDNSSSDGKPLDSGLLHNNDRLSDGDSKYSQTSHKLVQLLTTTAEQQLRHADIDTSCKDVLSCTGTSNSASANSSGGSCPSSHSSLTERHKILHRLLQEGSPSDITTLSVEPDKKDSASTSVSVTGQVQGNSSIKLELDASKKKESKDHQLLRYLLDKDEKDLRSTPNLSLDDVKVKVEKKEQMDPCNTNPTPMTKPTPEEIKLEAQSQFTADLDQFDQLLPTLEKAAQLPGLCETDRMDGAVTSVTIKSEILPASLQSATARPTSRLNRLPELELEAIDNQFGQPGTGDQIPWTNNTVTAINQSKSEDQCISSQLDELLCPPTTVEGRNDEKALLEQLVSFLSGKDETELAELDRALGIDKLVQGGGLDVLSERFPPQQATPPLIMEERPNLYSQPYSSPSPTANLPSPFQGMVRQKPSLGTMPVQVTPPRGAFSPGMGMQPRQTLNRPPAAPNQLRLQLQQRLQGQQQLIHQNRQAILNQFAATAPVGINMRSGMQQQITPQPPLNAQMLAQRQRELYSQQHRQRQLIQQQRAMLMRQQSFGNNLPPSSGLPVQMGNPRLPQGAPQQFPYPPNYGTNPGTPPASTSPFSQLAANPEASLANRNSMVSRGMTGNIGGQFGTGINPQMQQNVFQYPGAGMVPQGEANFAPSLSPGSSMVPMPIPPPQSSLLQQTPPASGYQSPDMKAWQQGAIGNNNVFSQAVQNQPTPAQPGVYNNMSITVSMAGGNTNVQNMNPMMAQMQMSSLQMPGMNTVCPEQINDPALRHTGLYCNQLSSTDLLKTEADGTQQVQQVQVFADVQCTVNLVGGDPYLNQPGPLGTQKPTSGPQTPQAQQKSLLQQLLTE
Protocol: MDA-MB-231 and HEK293T cells were cultured in a medium containing Dulbecco’s modified eagle medium (DMEM) supplemented with 1% penicillin–streptomycin (PS) and 10% FBS with 5% CO2 at 37 °C.
MDA-MB-231 cells were seeded into 6-well pates (Corning, 3506) at a density of 6 × 10^5 cell per well. After incubation at 37 °C for 24 h, cells were treated with synthesized compounds in Opti-MEM medium for 12, 18, or 24 h. Cells were washed twice with cold Dulbecco’s phosphate-buffered saline (DPBS) prior to cell lysis using a cell lysis buffer (1% Triton X-100, 150 mM NaCl, 50 mM Tris-HCl pH 7.6, 0.1% SDS, 0.5% sodium deoxycholate, and 1 × protease inhibitor cocktail) on ice. Cell lysates were centrifuged at 13,000 rpm at 4 °C for 15 min. The supernatant was collected, and protein concentration was determined using Pierce^TM 660nm protein assay. A 6 × SDS loading buffer was added to the cell lysate and incubated at 95 °C for 5 min. The same amount of protein was subjected to SDS-PAGE and transferred to PVDF membranes. After blocking membranes with 5% skim milk in TBST (Tris-buffered saline with 0.05% Tween 20), membranes were incubated with a primary antibody at 4 °C overnight. Membranes were then incubated with HRP-linked secondary antibody at rt for 1 h and developed with Pico ECL solution. In MG-132 and 17-AAG treatment experiments, MDA-MB-231 cells were cotreated with synthesized compounds and MG-132 (5 μM) or 17-AAG (1 μM) at 37 °C for 18 h.

[4] = test system: CSF-1 mRNA in MDA-MB-231 cells; test: RT-qPCR of CSF-1 mRNA; assay type: cell-based, human; details: 18 h, RT-qPCR normalized to 18S
Protocol: (§1) Quantitative real-time PCR was performed for CSF-1, E-cadherin, and 18S (as a reference gene) mRNAs. MDA-MB-231 cells (1.2 × 10^5 cells/well) were seeded into a 12-well plate and incubated at 37 °C with 5% CO2 for 24 h. These cells were treated with indicated compounds (YL2, adamantane, ND1-YL2, or YL2-HyT6) for 18 h in Opti-MEM medium. After cells were washed with cold DPBS, mRNAs were isolated from these cells using an AccuPrep Universal RNA extraction kit (Bioneer, Daejeon, Korea). Then 1.5 µg of mRNAs were reverse-transcribed using AccuPower RocketScript Cycle RT PreMix (Bioneer) to generate complementary DNAs. RT-qPCR for CSF-1, E-cadherin, and 18S was performed with a StepOnePlus Real-Time PCR System (Applied Biosystems, Waltham, MA, USA) and SYBR Green mix (Applied Biosystems) according to the manufacturer’s instructions with gene-specific primers (Table 1).

[5] = set-up: method as in PMID 29090910; details: compared with the corresponding native peptide sequence; cited from earlier work
SRC-1 [6] = details: in vitro binding activity; cited from earlier work
From the text: The SRC-1 degrader ND1-YL2 is a chimeric molecule composed of a ligand (YL2) for SRC-1 [31] and a UBR E3 ligase binder (Figure 2). […] ND1-YL2 was generated by conjugating a tetrapeptide RLAA, the N-degron peptide as a binder for UBR. Thus, this bifunctional molecule enables the recruitment of SRC-1 to UBR protein, thereby promoting the formation of a ternary complex for polyubiquitination and proteasomal degradation of SRC-1.

[7] = test system: E-cadherin mRNA in MDA-MB-231 cells; test: RT-qPCR of E-cadherin mRNA; assay type: cell-based, human; details: 18 h, RT-qPCR normalized to 18S
Protocol: as §1

SRC-1 [8] = details: stapled peptide lacking the hydrophobic tag; cited from earlier work
Protocol: Cellular levels of SRC-1 were analyzed at various time points (12, 18, and 24 h) by immunoblotting.

[9] = set-up: method as in PMID 29090910; details: cited from earlier work

Structure (SMILES) | Ki [1] | Helicity (%) [2] | SRC-1 (%) ([3]; 10 μM compound) | SRC-1 (%) ([3]; 20 μM compound) | SRC-1 (%) ([3]; 50 μM compound) | SRC-1 degradation (immunoblot) ([3]; 20 μM) | CSF-1 mRNA expression level [4] | Proteolytic resistance [5] | Ki (SRC-1 [6]) | E-cadherin mRNA expression level [7] | SRC-1 degradation (SRC-1 [8]) | Cell penetration ability [9]
CC(C)C[C@H](NC(=O)CCCNC(=O)CNC12CC3CC(CC(C3)C1)C2)C(=O)N[C@@H](CC(C)C)C(=O)N1CCC[C@H]1C(=O)N1CCC[C@H]1C(=O)N[C@H](C(=O)N[C@@H](CCC(=O)O)C(=O)N[C@@H](CCC(N)=O)C(=O)N[C@@H](CC(=O)O)C(=O)N[C@@H](CC(C)C)C(=O)N[C@@]1(C)CCC/C=C\CCC[C@@](C)(C(=O)N[C@@H](Cc2ccc(O)cc2)C(N)=O)NC(=O)[C@H](CC2CCCCC2)NC(=O)[C@H](CC(C)C)NC(=O)[C@H](CCCCN)NC1=O)[C@@H](C)O [YL2-HyT1] (H-[N(1-adamantyl)Gly][GABA]LLPPTEQDL[S5]KL[Cha][S5]Y-NH2; staple (Z) 12-16; C-terminus assumed) | 1.08 ± 0.032 µM | 24.1% | 98% | 99% | 91% |  |  |  |  |  |  | 
CC(C)C[C@H](NC(=O)CCCCNC(=O)CNC12CC3CC(CC(C3)C1)C2)C(=O)N[C@@H](CC(C)C)C(=O)N1CCC[C@H]1C(=O)N1CCC[C@H]1C(=O)N[C@H](C(=O)N[C@@H](CCC(=O)O)C(=O)N[C@@H](CCC(N)=O)C(=O)N[C@@H](CC(=O)O)C(=O)N[C@@H](CC(C)C)C(=O)N[C@@]1(C)CCC/C=C\CCC[C@@](C)(C(=O)N[C@@H](Cc2ccc(O)cc2)C(N)=O)NC(=O)[C@H](CC2CCCCC2)NC(=O)[C@H](CC(C)C)NC(=O)[C@H](CCCCN)NC1=O)[C@@H](C)O [YL2-HyT2] (H-[N(1-adamantyl)Gly][Ava]LLPPTEQDL[S5]KL[Cha][S5]Y-NH2; staple (Z) 12-16; C-terminus assumed) | 1.52 ± 0.087 µM | 18.7% | 92% | 85% | 66% |  |  |  |  |  |  | 
CC(C)C[C@H](NC(=O)CCOCCNC(=O)CNC12CC3CC(CC(C3)C1)C2)C(=O)N[C@@H](CC(C)C)C(=O)N1CCC[C@H]1C(=O)N1CCC[C@H]1C(=O)N[C@H](C(=O)N[C@@H](CCC(=O)O)C(=O)N[C@@H](CCC(N)=O)C(=O)N[C@@H](CC(=O)O)C(=O)N[C@@H](CC(C)C)C(=O)N[C@@]1(C)CCC/C=C\CCC[C@@](C)(C(=O)N[C@@H](Cc2ccc(O)cc2)C(N)=O)NC(=O)[C@H](CC2CCCCC2)NC(=O)[C@H](CC(C)C)NC(=O)[C@H](CCCCN)NC1=O)[C@@H](C)O [YL2-HyT4] (H-[N(1-adamantyl)Gly][PEG1]LLPPTEQDL[S5]KL[Cha][S5]Y-NH2; staple (Z) 12-16; C-terminus assumed) | 0.484 ± 0.052 µM | 29.9% | 83% | 53% | 70% |  |  |  |  |  |  | 
C1C2CC3CC1CC(C2)C3 [adamantane] |  |  |  |  |  | no effect | no effect |  |  | no effect |  | 

Second part, led by results:

Ki [1] | Helicity (%) [2] | SRC-1 (%) ([3]; 10 μM compound) | SRC-1 (%) ([3]; 20 μM compound) | SRC-1 (%) ([3]; 50 μM compound) | SRC-1 degradation (immunoblot) ([3]; 20 μM) | Structure (SMILES) | CSF-1 mRNA expression level [4] | Proteolytic resistance [5] | Ki (SRC-1 [6]) | E-cadherin mRNA expression level [7] | SRC-1 degradation (SRC-1 [8]) | Cell penetration ability [9]
0.681 ± 0.054 µM | 24.9% | 73% | 58% | 50% |  | CC(C)C[C@H](NC(=O)CCCCCNC(=O)CNC12CC3CC(CC(C3)C1)C2)C(=O)N[C@@H](CC(C)C)C(=O)N1CCC[C@H]1C(=O)N1CCC[C@H]1C(=O)N[C@H](C(=O)N[C@@H](CCC(=O)O)C(=O)N[C@@H](CCC(N)=O)C(=O)N[C@@H](CC(=O)O)C(=O)N[C@@H](CC(C)C)C(=O)N[C@@]1(C)CCC/C=C\CCC[C@@](C)(C(=O)N[C@@H](Cc2ccc(O)cc2)C(N)=O)NC(=O)[C@H](CC2CCCCC2)NC(=O)[C@H](CC(C)C)NC(=O)[C@H](CCCCN)NC1=O)[C@@H](C)O [YL2-HyT3] (H-[N(1-adamantyl)Gly][Ahx]LLPPTEQDL[S5]KL[Cha][S5]Y-NH2; staple (Z) 12-16; C-terminus assumed) |  |  |  |  |  | 
0.549 ± 0.017 µM | 27.2% | 78% | 95% | 57% |  | CC(C)C[C@H](NC(=O)CCOCCOCCNC(=O)CNC12CC3CC(CC(C3)C1)C2)C(=O)N[C@@H](CC(C)C)C(=O)N1CCC[C@H]1C(=O)N1CCC[C@H]1C(=O)N[C@H](C(=O)N[C@@H](CCC(=O)O)C(=O)N[C@@H](CCC(N)=O)C(=O)N[C@@H](CC(=O)O)C(=O)N[C@@H](CC(C)C)C(=O)N[C@@]1(C)CCC/C=C\CCC[C@@](C)(C(=O)N[C@@H](Cc2ccc(O)cc2)C(N)=O)NC(=O)[C@H](CC2CCCCC2)NC(=O)[C@H](CC(C)C)NC(=O)[C@H](CCCCN)NC1=O)[C@@H](C)O [YL2-HyT5] (H-[N(1-adamantyl)Gly][PEG2]LLPPTEQDL[S5]KL[Cha][S5]Y-NH2; staple (Z) 12-16; C-terminus assumed) |  |  |  |  |  | 
 | 32.5% |  |  |  |  | CC(C)C[C@@H]1NC(=O)[C@H](CCCCN)NC(=O)[C@@](C)(NC(=O)[C@H](CC(C)C)NC(=O)[C@H](CC(=O)O)NC(=O)[C@H](CCC(N)=O)NC(=O)[C@H](CCC(=O)O)NC(=O)[C@@H](NC(=O)[C@@H]2CCCN2C(=O)[C@@H]2CCCN2C(=O)[C@H](CC(C)C)NC(=O)[C@@H](N)CC(C)C)[C@@H](C)O)CCC/C=C\CCC[C@@](C)(C(=O)N[C@@H](Cc2ccc(O)cc2)C(N)=O)NC(=O)[C@H](CC2CCCCC2)NC1=O [YL2] (H-LLPPTEQDL[S5]KL[Cha][S5]Y-NH2; staple (Z) 10-14; N-terminus assumed) | no effect | increased proteolytic resistance | 0.14 µM | no effect | unable to induce SRC-1 degradation | reasonable cell penetration ability
